Reference: patent US9211278B2, “Composition containing arylnaphthalene lignan derivative for preventing and/or treating dementia” (KOREA INSTITUTE OF SCIENCE AND TECHNOLOGY, priority 2012, dated 2015)

Tests used:
[1] = test system: PC12 cell treated with Aβ25-35; experiment: Protection against cellular toxicity induced by Aβ25-35; format: cell-based; conditions: 30 uM Aβ25-35, 48 hrs
Method: To identify the protecting effect against cellular toxicity induced by Aβ, PC12 cell was treated with Justicidin A and Aβ25-35 and measured cell viability. More particularly, 1.5×10^4 cells of PC12 were seeded to each well of 96-well plate, and incubated for 24 hrs. Then, the plate was treated with various concentrations of Justicidin A 30 min, treated 30 uM Aβ25-35, and incubated for 48 hrs. Cell viability was measured by Cell counting kit-8 to show the result FIG. 12b.

APP endocytosis = APP endocytosis rate (confocal microscopy, reversible biotinylation); format: cell-based, human
Method: To test the endocytosis rate of App, 5×10^5 cells of HeLa cell line transfected with amyloid precursor protein (APP) as the substantially same method as Experimental Examples 6 and 7, seeded on poly-D-lysine coated cover glass and incubated for 24 hours. Then, 1 uM Justicidin A and APP antibody (1:100 diluted, SIG-39320, Covance) treated for 45 min at 4° C., washed out to remove free APP antibodies with culture fluid at three times. The cells were incubated at 37° C., starting endocytosis temperature, for 10, 30, and 60 min, and fixed by 4% paraformaldehyde for 15 min. Then, the cells were permeabilized by 0.1% triton X-100 for 5 min, and APP was marked by secondary fluorescent-labeled antibody (1:200 diluted, A11001, Invitrogen).
The change in the location of APP at various times was measured by confocal microscopy (LSM510, Zeiss, Germany) at 488 nm. […] (0 min). The endocytosis started at 37° C. […]
APP fluorescent intensity remained in plasma membrane compared to APP fluorescent intensity in plasma membrane at 0 min was measured.
For quantitative measurement of APP endocytosis rate, a reversible biotinylation method was used. […]
The result of western blotting was measured by band intensity to show the amount of intracellular APP (FIG. 10b; % internalization) with respect to total maAPP on the cell membrane (FIG. 10a).

PC12 cell = experiment: Cell viability assay, Cell counting kit-8; format: cell-based; conditions: 125 nM to 1000 nM, 24 hrs
Method: Firstly, cell viability assay was performed for identifying whether Justicidin A had toxicity to normal brain cell line. Cell viability assay performed using Cell counting kit-8 (CCK-8, WST-8, Kamimashikigun, Kumamoto, Japan). More particularly, 1.5×10^4 cells of PC12 (Cell No. RCB0009, RIKEN BRC Cell Bank, Tsukuba, Ibaraki, Japan) were seeded to each well of 96-well plate, and incubated for 24 hrs. Then various concentrations of Justicidin A were treated for 24 hrs, and measured by Cell counting kit-8.

COc1cc2c(OC)c3c(c(-c4ccc5c(c4)OCO5)c2cc1OC)C(=O)OC3 [Justicidin A]
toxicity induced by Aβ25-35 [1]: reduced the toxicity induced by Aβ25-35 in a concentration-dependent manner | APP endocytosis (reversible biotinylation) (APP endocytosis; 1 uM pre-treated, 5, 10, 30 min at 37° C.): showed reduced endocytosis of APP | APP endocytosis (APP fluorescent intensity remaining in plasma membrane) (APP endocytosis; 1 uM pre-treatment, confocal microscopy, 10, 30, 60 min at 37° C.): APP endocytosis was delayed | toxicity to PC12 cell (PC12 cell): has no toxicity to PC12 cell
